Measured values taken from patent US20220290237A1, “METHOD FOR PREDICTING THE RESPONSE OF ANTIPSYCHOTIC DRUGS” (INSERM (INSTITUT NATIONAL DE LA SANTÉ ET DE LA RECHERCHE …, priority 2019, published 2022).

Test system: total RNA from PBMCs
Assay: RNA-seq gene expression before and after 4 weeks of amisulpride treatment
Assay type: in vivo, human
Excerpt: The cohort analysed in this study was obtained from the OPTiMiSE clinical trial (http://www.optimisetrial.eu) (29). After providing written informed consent, 491 patients with a first episode psychosis were included and 453 started medication. All patients were diagnosed with schizophrenia, schizophreniform disorder or schizoaffective disorder according to the Diagnostic and Statistical Manual of Mental Disorders, Fourth Edition (DSM-IV) and confirmed on the basis of the Mini International Neuropsychiatric Interview Plus (M.I.N.I. Plus) (30) (table 4). At baseline, patients were medication-naïve or minimally-treated (any antipsychotic medication used for […] 2 weeks in the previous year or for a total of 6 weeks in their lifetime) and were ill for no longer than 2 years. Only subjects involved in the single-treatment arm (phase 1) of the trial were considered for this study (29). All patients were treated for 4 weeks with amisulpride (200-800 mg/day orally). At the end of the 4-week treatment, the blood concentration of antipsychotic used has been determined. This measurement provided a reliable indication of the treatment compliance of individual patients.
A DNase digestion procedure was added after extraction. Total RNA was purified using the RNA Clean & Concentrator™-5 kit following the manufacturer's instructions (Zymo Research Corp., Irvine, USA). RNA quantification was performed on a NanoDrop™ 8000 spectrophotometer, in duplicate. The quality and integrity of the RNA samples were assessed using an Agilent Bioanalyzer 2100 and the RNA6000 Nano Labchip kit (Agilent Technologies). Only samples with an RNA integrity number (RIN) higher than 7 were selected. Three hundred and seventy-six RNA samples fulfilled quality control criteria for RNA-seq analyses, corresponding to two RNA samples (one at inclusion and one after 4 weeks of treatment) for 188 subjects. Forty-eight additional RNAs were available for replication studies, in 24 independent subjects.
All libraries were prepared using the Illumina TruSeq Stranded Total RNA with Ribo-Zero Globin kit (Illumina Inc., San Diego, Calif., U.S.A.), which removes ribosomal RNA and globin mRNA. Libraries were prepared using one microgram of total RNA as initial input and following the standard protocols. After library quality control, 2×100 bp paired-end (PE) sequencing was performed on a HiSeq4000 system (Illumina), pooling a maximum of 6 samples on each lane, in order to reach 40 to 50 million of PE-reads for each sample. The Illumina pipeline was used to generate raw RNA sequencing data (fastq files) for each sample. Sequence quality controls were performed, using FastQC and in-house bioinformatics pipelines, from a sampling of 2×10 million reads in order to assess the levels of read duplicates, adapters, remaining rRNA and the GC content. Reads were trimmed for adapters and low-quality bases (Phred quality score <30) using Trimmomatic software (v.0.32). Reads were then mapped to the Genome Reference Consortium human genome assembly 37 (GRCh37) reference genome (hg19) using Tophat software (v.2.0.13). Read mapping quality was assessed using RNA-SeQC software. Then, gene-level quantification in read counts was performed by HTSeq software (v.0.6.1), using gene annotation from Ensembl v.86. All downstream analyses were conducted using the statistical software R (v.3.2.4) and Bioconductor R packages. Genes with counts-per million (cpm) below 1 in more than two third of the samples were considered unexpressed and removed from the analysis using edgeR package (v.3.12.1). Raw gene counts matrix has been normalized to account for differences in sequencing depth and RNA composition using the “median ratio” method implemented in the DESeq2 package (v.1.16.1). To avoid batch effects as confounding factors, all subjects had their 2 time-points in a same batch. […]

[1] = good responders (n = 113), 4 weeks amisulpride
[2] = poor responders (n = 75), 4 weeks amisulpride

## CCN1CCCC1CNC(=O)c1cc(S(=O)(=O)CC)c(N)cc1OC (stereo not drawn) [amisulpride, 4-amino-N-((1-ethyl-2-pyrrolidinyl)methyl)-5-(etgylsulfonyl)-2-methoxybenzamide]
DHRS13, poor responders (n = 75), 4 weeks amisulpride
  FC, fold-change at week 4 relative to the expression level at inclusion: DHRS13: 1.04
[1]
  FC, fold-change at week 4 relative to the expression level at inclusion: FAT1: 1.27
  FC, fold-change at week 4 relative to the expression level at inclusion: FBXL13: 0.85
  FC, fold-change at week 4 relative to the expression level at inclusion: GALNT14: 0.78
  FC, fold-change at week 4 relative to the expression level at inclusion: GUCY1B3: 1.14
  FC, fold-change at week 4 relative to the expression level at inclusion: HOMER3: 0.84
  FC, fold-change at week 4 relative to the expression level at inclusion: KAZN: 0.83
  FC, fold-change at week 4 relative to the expression level at inclusion: KIAA0319: 0.83
  FC, fold-change at week 4 relative to the expression level at inclusion: LINC00963: 0.91
  FC, fold-change at week 4 relative to the expression level at inclusion: NFE4: 0.83
  FC, fold-change at week 4 relative to the expression level at inclusion: NLRP6: 0.81
  FC, fold-change at week 4 relative to the expression level at inclusion: NLRP12: 0.87
  FC, fold-change at week 4 relative to the expression level at inclusion: P2RY12: 1.14
  FC, fold-change at week 4 relative to the expression level at inclusion: P4HA2: 0.89
  FC, fold-change at week 4 relative to the expression level at inclusion: PLB1: 0.85
  FC, fold-change at week 4 relative to the expression level at inclusion: SLC4A4: 1.15
  FC, fold-change at week 4 relative to the expression level at inclusion: TRPC6: 1.26
  FC, fold-change at week 4 relative to the expression level at inclusion: WLS: 0.87
[2]
  FC, fold-change at week 4 relative to the expression level at inclusion: FAT1: 1.20
  FC, fold-change at week 4 relative to the expression level at inclusion: FBXL13: 0.92
  FC, fold-change at week 4 relative to the expression level at inclusion: GALNT14: 1.04
  FC, fold-change at week 4 relative to the expression level at inclusion: GUCY1B3: 1.05
  FC, fold-change at week 4 relative to the expression level at inclusion: HOMER3: 1.09
  FC, fold-change at week 4 relative to the expression level at inclusion: KAZN: 0.94
  FC, fold-change at week 4 relative to the expression level at inclusion: KIAA0319: 0.94
  FC, fold-change at week 4 relative to the expression level at inclusion: LINC00963: 1.08
  FC, fold-change at week 4 relative to the expression level at inclusion: NFE4: 0.95
  FC, fold-change at week 4 relative to the expression level at inclusion: NLRP6: 1.09
  FC, fold-change at week 4 relative to the expression level at inclusion: NLRP12: 1.08
  FC, fold-change at week 4 relative to the expression level at inclusion: P2RY12: 1.10
  FC, fold-change at week 4 relative to the expression level at inclusion: P4HA2: 1.04
  FC, fold-change at week 4 relative to the expression level at inclusion: PLB1: 0.99
  FC, fold-change at week 4 relative to the expression level at inclusion: SLC4A4: 0.93
  FC, fold-change at week 4 relative to the expression level at inclusion: TRPC6: 0.97
  FC, fold-change at week 4 relative to the expression level at inclusion: WLS: 0.98
Good responders only, FDR threshold of 0.1, 16,204 genes expressed in PBMCs
  DEGs before vs after treatment that survived BH-correction: 32 genes
